Measured values from patent publication US20140010939A1, “Sweetness Enhancers, Sweetener Compositions, Methods of Making the Same and Consumables Containing the Same” (Nutrinova Nutrition Specialties & Food Ingredients GmbH, priority 2011, published 2014).

System: control cell line without sweet receptor (HEKα15#17)
Assay: Control cell line without sweet receptor in the same calcium cell based assay
Experimental: For measurement of human T1R2/T1R3 taste receptor dependent activity a control cell line without sweet receptor based on HEK 293 and a cell line expressing the sweet receptor hT1R2/hT1R3 based on HEK 293, respectively, are seeded into assay plates and labelled with the calcium sensitive fluorescence dye Fluo4-AM in a culture medium. The potential modulators, e.g. the test compound, are added to the control cell line and to the cell line expressing the sweet receptor hT1R2/hT1R3, respectively.
A stable cell line based on HEK293 was termed HEKα15#17 served as control for functional Ga-protein and a stable cell line HEKGα15#17R2R3b#8 C6 served as cell line expressing the sweet receptor hT1R2/hT1R3 based on HEKGα15#17.
The cells were cultured in DMEM/HG and 10% FCS Gold, 4 mM L-Glutamin, 1,3 mg/ml Geneticin (HEKGα15#17) or the same medium additionally containing 6 μg/ml Blasticidin (HEKGα15#17R2R3b#8 C6). The medium for the assay was DMEM/HG (high glucose, 4.5 g/l glucose, Life Technologies) and 10% FCS Gold, 4 mM L-Glutamin (HEKGα15#17) or DMEM/LG (low glucose, 1 g/l glucose; Life Technologies) and 10% FCS Gold (HEKGα15#17R2R3b#8C6), respectively.
In order to evaluate the sweet receptor modulating activity of the compound of formula (Ia), compound of formula (Ia) was added to the cultures in a concentration of 25 μM in a volume of 50 μl. Controls were KH-buffer (Krebs HEPES-buffer: 118 mM NaCl, 4.7 mM KCl, 1.2 mM MgSO4, 1.2 mM KH2PO4, 4.2 mM NaHCO3, 1.3 mM CaCl2, 10 mM Hepes, pH 7.4) either without or with sweetness enhancer.
Further controls for function of G-protein and receptor were isoproterenol (1 μM, Sigma Aldrich), ionomycin (1 μM, Calbiochem) and ATP (1 μM, Applichem).
For measurement of human T1R2/T1R3 taste receptor dependent activity, on day 1 of the test procedure the HEKα15#17 cells (control cell line without sweet receptor) and the HEKGα15#17R2R3b#8 C6 cells (cell line expressing the sweet receptor hT1R2/hT1R3), respectively, were transferred to low-glucose medium.
On day 2 the cells were seeded into assay plates at a density of 25,000 cells/well. Assay plates for fluorescence measurement (black clear bottom 96-cavity plates, Greiner Bio-One) were coated with poly-D-lysine. For direct comparison both cell lines (control cell line without sweet receptor and cell line expressing the sweet receptor hT1R2/hT1R3) were seeded into different cavities of the same assay plate. The plate was placed into the incubator for 48 hours at 37° C., 5% CO2, 100% relative humidity.
On day 4 the calcium assay was performed. For this assay, the cells were marked with Fluo4-AM in medium and KH-buffer. To each cavity 100 μl KH-buffer/250 μM sulfinpyrazone/4 μM Fluo4-AM were added gently to 100 μl medium (final concentration of Fluo4-AM=2 μM, stock solution of Fluo4-AM 1 mM in DMSO, excitation at 485 nm, emission at 520 nm, Fisher Scientific, 58239 Schwerte, Germany).
The plate was placed into the incubator for 1 hour. In the mean time the test substances (“ligands”) were prepared in a separate plate (5 times concentrated, 150 μl/cavity, and then automatically 50 μl/cavity were transferred into the screening cell plate by pipetting robot (FLEX-station, Molecular Devices, Sunnyvale, Calif.).
The culture medium was carefully removed and 200 μl KH-buffer/250 μM sulfinpyrazone per cavity was added slowly. Cells were left in the FLEX-station for 20 minutes for adaptation, followed by measurement at 37° C.

[1] = control compounds 1 μM, FIG. 1 second to fourth bars

Row | Compound | Fluo4-AM fluorescence increase (activation of control cell line) [1] | further results
1 | Nc1ncnc2c1ncn2[C@@H]1O[C@H](COP(=O)(O)OP(=O)(O)OP(=O)(O)O)[C@@H](O)[C@H]1O [ATP] | activate both the control and the cell line expressing the sweet receptor hT1R2/hT1R3 | 
2 | CC(C)NCC(O)c1ccc(O)c(O)c1 (centres unmarked) [isoproterenol] | activate both the control and the cell line expressing the sweet receptor hT1R2/hT1R3 | 
3 | C[C@H](CCC(=O)O)C[C@H](C)C[C@H](C)C(=O)/C=C(\O)[C@H](C)C[C@H](C)C/C=C/[C@@H](C)[C@@H](O)[C@@H](C)[C@@H](O)C[C@@H]1CC[C@@](C)([C@H]2CC[C@@](C)([C@@H](C)O)O2)O1 [ionomycin] | activate both the control and the cell line expressing the sweet receptor hT1R2/hT1R3 | 
4 | O=C(CO)[C@@H](O)[C@H](O)[C@H](O)CO [fructose] |  | Fluo4-AM fluorescence increase (activation of control cell line) (KH buffer/fructose (20 mM), FIG. 1 fifth bar): does neither activate the control cell line
5 | O=S(=O)([O-])NC1CCCCC1.[Na+] [sodium cyclamate] |  | Fluo4-AM fluorescence increase (activation of control cell line) (sodium cyclamate 30 mM, control sweetener, FIG. 1 first bar): does not activate the control cell line
